Test results taken from patent publication US5120835A, “Saccharide derivatives of protocatechualdehyde” (Kureha Chemical Industry Co., Ltd., priority 1989, dated 1992).
Like-named read-outs stand apart in the source and are kept apart here.

Assays:
[1] = Acute toxicity in mice (LD50, Litchfield-Wilcoxon method); conditions: mouse, in vivo, Jcl:ICR female mice, observed for 7 days
Experimental: The prescribed amounts of the test drugs dispersed in 0.3% CMC aqueous solution at a rate of 20 mg/ml for oral administration and the test drugs dissolved in 10% ethanol isotonic sodium chloride solution as a rate of 200 mg/ml for intraperitoneal administration were applied using gastric probes and syringes, respectively.

[2] = test system: granuloma growth; test: Granuloma growth inhibiting effect (paper disk implanted subcutaneously in rats); format: in vivo, male Donryu rats; conditions: oral, 10 days; for Granuloma Dry weight (mean): control 131.9 mg
Experimental: Effects of inhibiting granuloma growth were investigated by the method proposed by Fujimura et al. [Oyo Yakuri, 19 (3), 329 (1980)], using five-week old male Donryu rats. As paper disks, filter papers measuring 13 mm.0. and 28 mg and soaked in […] CMC solution (containing 0.1 mg/ml of 1 million unit dihydroxystreptomycin and penicillin, respectively) were used. A paper disk was implanted subcutaneously in the back of the rat under anesthesia. The test drugs dispersed in 0.3% CMC solutions were administered orally for 10 days; then, on the 11th day the granulomas were removed and their weights were measured. To the control group were administered the original 0.3% CMC solution containing no test drug.

[3] = Toxicity compared in words; format: in vivo; conditions: from LD50 of reference against LD50 of Table 1
[4] = test system: male mice; conditions: DRUGS IN JAPAN (ETHICAL DRUGS), 9th Edition (1985), p.105; cited from earlier work
[5] = test system: male rats; conditions: DRUGS IN JAPAN (ETHICAL DRUGS), 9th Edition (1985), p.105; cited from earlier work
[6] = test system: leukocytic migration; conditions: in vitro, low concentration level; cited from earlier work
[7] = test system: blood platelet agglutination; conditions: in vitro, low concentration level; cited from earlier work
[8] = in vivo; cited from earlier work
[9] = ip, intraperitoneal, dissolved in 10% ethanol isotonic sodium chloride solution, read-out: LD50, Intraperitoneal Administration
[10] = oral, dispersed in 0.3% CMC aqueous solution, read-out: LD50, Oral Administration

| SMILES | LD50 at 168 h [1, 9] [mg/kg] | LD50 at 168 h [1, 10] [mg/kg] | Granuloma Inhibition rate ([2]; 10 mg/kg/day) [%] | Granuloma Dry weight (mean) ([2]; 10 mg/kg/day) [mg] | Granuloma Inhibition rate ([2]; 50 mg/kg/day) [%] | Granuloma Dry weight (mean) ([2]; 50 mg/kg/day) [mg] | Granuloma Inhibition rate ([2]; 3 mg/kg/day) [%] | Granuloma Dry weight (mean) ([2]; 3 mg/kg/day) [mg] | Toxicity compared with PAL and the compounds of the present invention (in words) [3] | LD50 value [4] [mg/kg] | LD50 value [5] [mg/kg] | Inhibiting leukocytic migration (in words) [6] | Inhibiting blood platelet agglutination (in words) [7] | Metabolic rate (in words) [8] |
| --- | --- | --- | --- | --- | --- | --- | --- | --- | --- | --- | --- | --- | --- | --- |
| CO[C@H]1O[C@@H]2COC(c3ccc(OC(=O)c4ccccc4)c(OC(=O)c4ccccc4)c3)O[C@H]2[C@H](O)[C@H]1O (stereo partly drawn) [Ia1, Methyl-4,6-O-(3',4'-dibenzoyloxybenzylidene)-α-D-glucopyranoside] | 1900 | > 4000 | 29.8 | 92.6 | 43.7 | 74.3 |  |  |  |  |  |  |  |  |
| COc1ccc2c(c1)c(CC(=O)O)c(C)n2C(=O)c1ccc(Cl)cc1 [Indomethacin, indomethacin] |  |  |  |  |  |  | 45.9 | 71.3 | more toxic than both PAL and the compounds of the present invention | 30.2 | 29 |  |  |  |
| CO[C@H]1O[C@@H]2COC(c3ccc(O)c(O)c3)O[C@H]2[C@H](O)[C@H]1O (stereo partly drawn) [Ib1, Methyl-4,6-O-(3',4'-dihydroxybenzylidene)-α-D-glucopyranoside] | > 3000 | > 4000 | 30.7 | 91.4 | 50.0 | 66.0 |  |  |  |  |  |  |  |  |
| O=Cc1ccc(O)c(O)c1 [PAL, protocatechualdehyde] |  |  |  |  | 34.2 | 86.8 |  |  |  |  |  | shows a suitable effect | shows a suitable effect | higher metabolic rate |
